Measurements reported in PubChem BioAssay (NCI).
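Values below derive from 48-hour exposures of cells grown in 96-well plates, with endpoints linearly interpolated between the two concentrations bracketing the appropriate inhibition level. GI50 = concentration required for 50% inhibition of growth. TGI: total growth inhibition.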

Assays:
Assay in all cases: NCI anticancer screen, dose series, 48 h
[1] = tested on: IGROV1 ovarian
[2] = tested on: HOP-92 NSCLC
[3] = tested on: SK-MEL-5 melanoma
[4] = tested on: SK-MEL-28 melanoma
[5] = tested on: TK-10 renal
[6] = tested on: SNB-75 CNS
[7] = tested on: COLO 205 colon
[8] = tested on: UACC-257 melanoma
[9] = tested on: OVCAR-8 ovarian
[10] = tested on: NCI/ADR-RES ovarian
[11] = tested on: SF-295 CNS
[12] = tested on: HOP-62 NSCLC
[13] = tested on: MDA-MB-435
[14] = tested on: UACC-62 melanoma
[15] = tested on: ACHN renal
[16] = tested on: HCT-15 colon
[17] = tested on: T-47D breast
[18] = tested on: A498 renal
[19] = tested on: OVCAR-3 ovarian
[20] = tested on: UO-31 renal
[21] = tested on: NCI-H522 lung
[22] = tested on: SF-539 CNS
[23] = tested on: MDA-N
[24] = tested on: MDA-MB-231 breast
[25] = tested on: NCI-H226 lung
[26] = tested on: DU-145 prostate
[27] = tested on: OVCAR-5 ovarian
[28] = tested on: KM12 colon
[29] = tested on: NCI-H23 lung
[30] = tested on: CAKI-1 renal
[31] = tested on: SK-OV-3 ovarian
[32] = tested on: OVCAR-4 ovarian
[33] = tested on: PC-3 prostate
[34] = tested on: SW-620 colon
[35] = tested on: NCI-H460 lung
[36] = tested on: SK-MEL-2 melanoma
[37] = tested on: BT-549 breast
[38] = tested on: CCRF-CEM leukemia
[39] = tested on: HL-60(TB) leukemia
[40] = tested on: EKVX NSCLC
[41] = tested on: LOX IMVI melanoma
[42] = tested on: SN12C renal
[43] = tested on: HCT-116 colon
[44] = tested on: RPMI-8226 leukemia
[45] = tested on: HS 578T breast
[46] = tested on: MOLT-4 leukemia
[47] = tested on: SR leukemia
[48] = tested on: K-562 leukemia
[49] = tested on: HCC-2998 colon
[50] = tested on: A549 NSCLC
[51] = tested on: 786-0 renal
[52] = tested on: MCF7 breast
[53] = tested on: HT29 colon
[54] = tested on: RXF 393 renal
[55] = tested on: SNB-19 CNS
[56] = tested on: MALME-3M melanoma
[57] = tested on: SF-268 CNS
[58] = tested on: M14 melanoma
[59] = tested on: U251 CNS

## NC(N)=N/N=C/c1c(-c2ccc(Cl)cc2)nc2sc(Cl)cn12
[1]
  TGI: 2.04 µM
[2]
  TGI: 3.17 µM
[3]
  TGI: 2.97 µM
[4]
  TGI: 3.21 µM
[5]
  TGI: 3.1 µM
[6]
  TGI: 2.72 µM
[7]
  TGI: 2.12 µM
[8]
  TGI: 3.2 µM
[9]
  TGI: 2.53 µM
[10]
  TGI: 3.31 µM
[11]
  TGI: 3.18 µM
[12]
  TGI: 3.25 µM
[13]
  TGI: 2.57 µM
[14]
  TGI: 3.25 µM
[15]
  TGI: > 100 µM
[16]
  TGI: 2.69 µM
[17]
  TGI: 2.64 µM
[18]
  TGI: 3.17 µM
[19]
  TGI: 2.88 µM
[20]
  TGI: 3.1 µM
[21]
  TGI: 3.47 µM
[22]
  TGI: 2.53 µM
[23]
  TGI: 3.13 µM
[24]
  TGI: 3.29 µM
[25]
  TGI: 3.36 µM
[26]
  TGI: 3.37 µM
[27]
  TGI: 3.1 µM
[28]
  TGI: 2.2 µM
[29]
  TGI: 2.48 µM
[30]
  TGI: 2.82 µM
[31]
  TGI: 3.34 µM
[32]
  TGI: 2.18 µM
[33]
  TGI: > 100 µM
[34]
  TGI: 2.28 µM
[35]
  TGI: 3.21 µM

## Cc1ccccc1CNc1c2ccccc2nc2ccccc12
[36]
  GI50: 2.01 µM
  TGI: 4.19 µM
[37]
  GI50: 2.18 µM
  TGI: 6.15 µM
[1]
  GI50: 2 µM
  TGI: 5.01 µM
[38]
  GI50: 1.97 µM
  TGI: 12.6 µM
[2]
  GI50: 0.834 µM
  TGI: 4.54 µM
[39]
  GI50: 2.17 µM
  TGI: 5.06 µM
[3]
  GI50: 1.69 µM
  TGI: 3.05 µM
[4]
  GI50: 2.15 µM
  TGI: 5.02 µM
[5]
  GI50: 2.78 µM
  TGI: 11.7 µM
[6]
  GI50: 1.7 µM
  TGI: 8.36 µM
[7]
  GI50: 1.6 µM
  TGI: 3.5 µM
[40]
  GI50: 2.43 µM
  TGI: 8.02 µM
[8]
  GI50: 2.2 µM
  TGI: 5.23 µM
[41]
  GI50: 1.49 µM
  TGI: 2.93 µM
[9]
  GI50: 2.63 µM
  TGI: 12.2 µM
[10]
  GI50: 2.07 µM
  TGI: 6.16 µM
[11]
  GI50: 2.67 µM
  TGI: 11.8 µM
[12]
  GI50: 3.02 µM
  TGI: 14.6 µM
[42]
  GI50: 2.47 µM
  TGI: 8.97 µM
[13]
  GI50: 1.67 µM
  TGI: 3.18 µM
[43]
  GI50: 1.11 µM
  TGI: 8.31 µM
[14]
  GI50: 1.83 µM
  TGI: 4.28 µM
[15]
  GI50: 1.65 µM
  TGI: 3.66 µM
[16]
  GI50: 1.8 µM
  TGI: 4.02 µM
[44]
  GI50: 1.52 µM
  TGI: 4.56 µM
[17]
  GI50: 2.08 µM
  TGI: 5.93 µM
[45]
  GI50: 2.34 µM
  TGI: 5.99 µM
[18]
  GI50: 1.42 µM
  TGI: 2.96 µM
[19]
  GI50: 2.39 µM
  TGI: 5.93 µM
[20]
  GI50: 1.33 µM
  TGI: 3.91 µM
[46]
  GI50: 2.67 µM
  TGI: 8.14 µM
[47]
  GI50: 1.72 µM
  TGI: 5.87 µM
[48]
  GI50: 2.32 µM
  TGI: 11.4 µM
[21]
  GI50: 1.61 µM
  TGI: 4.32 µM
[22]
  GI50: 1.84 µM
  TGI: 4 µM
[49]
  GI50: 1.73 µM
  TGI: 3.65 µM
[50]
  GI50: 2.09 µM
  TGI: 5.22 µM
[24]
  GI50: 1.7 µM
  TGI: 4.19 µM
[51]
  GI50: 2.54 µM
  TGI: 7.47 µM
[52]
  GI50: 1.84 µM
  TGI: 4.78 µM
[25]
  GI50: 2.24 µM
  TGI: 6.17 µM
[53]
  GI50: 1.97 µM
  TGI: 10 µM
[26]
  GI50: 2.91 µM
  TGI: 10.1 µM
[27]
  GI50: 2.08 µM
  TGI: 7.57 µM
[54]
  GI50: 1.63 µM
  TGI: 3.14 µM
[28]
  GI50: 2.95 µM
  TGI: 10.1 µM
[29]
  GI50: 1.71 µM
  TGI: 4.24 µM
[30]
  GI50: 1.42 µM
  TGI: 3.45 µM
[31]
  GI50: 2.62 µM
  TGI: 9.91 µM
[55]
  GI50: 3.27 µM
  TGI: 13.7 µM
[56]
  GI50: 1.66 µM
  TGI: 3.11 µM
[32]
  GI50: 1.92 µM
  TGI: 6.4 µM
[57]
  GI50: 2.67 µM
  TGI: 9.33 µM
[33]
  GI50: 1.88 µM
  TGI: 8.79 µM
[58]
  GI50: 1.51 µM
  TGI: 3.2 µM
[34]
  GI50: 1.77 µM
  TGI: 5.64 µM
[35]
  GI50: 1.86 µM
  TGI: 4.71 µM
[59]
  GI50: 2.91 µM
  TGI: 11.4 µM
